Series [1] concerns the target T1, porcine succinate-cytochrome c reductase (SCR, the mixture of complex II and bc1) (Sus scrofa, UniProt P24964).
T1 construct: T h e S C R f r o m p o r c i n e h e a r t; from tissue; host or cells: porcine heart
Put plainly: SCR activity, succinate-cytochrome c system (Assay 1). Format: biochemical. The conditions noted are these: for ∆∆Gexp: Table S1, experimental binding free energy change vs compound 1; for ΔΔGexp: experimental binding free energy change relative to compound 1. As for the experimental part: (§1) Figure 4 Slow-binding inhibition mechanism. (A,B) Effect of various concentrations of cytochrome c and compound 18 on the inhibition of SCR activity. Each reaction mixture contains 100 mM, pH 7.4), EDTA (0.3 mM), succinate (20 mM), SCR (0.1 nM), and indicated amounts of cytochrome c and compound 18. The assays were performed in the presence of (A) 18 (35 nM) and a specified amount of cytochrome c (1, 4 μM; 2, 8 μM; 3, 20 μM; and 4, 48 μM) or (B) cytochrome c (60 μM) and various concentrations of compound 18 (1, 0 nM; 2, 15 nM; 3, 20 nM; 4, 30 nM; 5, 40 nM; and 6, 50 nM). Experimental data are shown as coloured dots and theoretical values are represented as black solid lines. Insets: plots of Kobs against concentration of (A) cytochrome c and (B) compound 18. […] Each reaction mixture contains 100 mM, pH 6.5), EDTA (2 mM), lauryl maltoside (750 μM), oxidised cytochrome c (100 μM), SCR (0.05 nM), and indicated amounts of DBH2 and compound 18. Two representative sets of inhibitory assays were performed in the presence of (C) DBH2 (20 μM) and a specified amount of compound 18 (1, 20 nM; 2, 40 nM; 3, 60 nM; 4, 80 nM), or (D) DBH2 (120 μM) and a specified amount of compound 18 (1, 40 nM; 2, 80 nM; 3, 120 nM; 4, 180 nM). Insets: plots of Kobs against concentration of compound 18. (E) Plot of the apparent rate constant A against concentration of DBH2. Inset: Plot of 1/A against concentration of DBH2. (F) Plot of the apparent rate constant B against concentration of DBH2.
(§2) The porcine succinate-cytochrome c reductase (SCR, the mixture of complex II and bc1) was prepared essentially according to the previously reported method. The enzymatic activities of SCR, complex II, and bc1 complex were analyzed in respective reaction mixtures as reported previously. Kinetic analyses for the inhibition mechanism were performed as previously described. […]
(§3) inhibitory kinetics study of bc1 inhibitors 8. […]
(§4) synthesized compounds against bc1 complex were examined by SCR. As previously described 9, the combined activity of SCR can be determined by using succinate and cytochrome c as substrates (Assay 1). We also measured the activity of complex II by using succinate and 2,6-dichloroindophenol (DCIP) as substrates (Assay 2), or the activity of bc1 complex by using decylubiquinol (DBH2) and cytochrome c as substrates (Assay 3). […]
redA 10, was used to represent the enzyme concentration. The three redox reactions used in this study were summarized as follows.
Assay 1: succinate + cytochrome c3+ S C R fumarate + cytochrome c2+
Assay 2: succinate + DCIP complex II fumarate + DCIPH 2
Assay 3: DBH 2 + cytochrome c3+ bc1 complex DB + cytochrome c2+
All assays were performed at 23 °C. The enzymatic activity of SCR (Assay 1) was carried out in 1.8 mL of reaction mixture containing 100 mM PBS (pH 7.4), 0.3 mM EDTA, and indicated concentrations of succinate and oxidized cytochrome c (Sigma-Aldrich). The activity of succinate-ubiquinone reductase (complex II, Assay 2) was determined in essentially the same reaction mixture, except for the replacement of cytochrome c with DCIP (Alfa Aesar). […] DBH 2 was prepared through reduction of decylubiquinone by dithionite (Sigma-Aldrich) as previously described 11,12. The nonionic detergent LM was used to decrease the interfering non-enzymatic activity though it slightly […]

The subject of series [2] is Sphaerotheca fuliginea (Schlecht.) Poll. Put plainly: In vivo fungus growth inhibitory rate at 200 mg/L, powdery mildew. From the text: Based on the above in vitro study, compounds with nanomolar and subnanomolar Ki values were selected from the total 21 newly synthezised compounds for further studies. Pesticide likeness, defined as a complex balance of various physicochemical properties and structure features, can evaluate whether a molecule is similar to the known pesticides. After the filtration of pesticide likeness, seven compounds were kept to adhere to our previously defined rules for pesticide-likeness including molecular weight (MW) ≤ 435 Da, ClogP ≤ 6, number of H-bond acceptors (HBA) ≤ 6, number of H-bond donors (HBD) ≤ 2, number of rotatable bonds (ROB) ≤ 9, and number of aromatic bonds (ARB) ≤ 17 (Table 1)[24]. […] Therefore, compound 18 was recognized as lead compound for subsequent studies.
(§5) [a] Compounds are named as “series number-site number plus substitution group number” a: -F, b: -Cl, c:
(§6) -Br, d: -NO2, e: -CH3, f: -CF3, g: -OCH3, h: -OH, i: -NH2, j: -COOH.
(§7) [b] Substitution number and group.
(§8) [c] CH is “series 1” and N is “series 2”. […]
(§9) Table S2 Fungus growth inhibitory rate of target compounds (200 mg/L).
(§10) Comp. No. R X Sphaerotheca fuliginea Pseudoperonospora cubensis

Series [3] concerns Pseudoperonospora cubensis (Berk. et Curt.). Put plainly: In vivo fungus growth inhibitory rate at 200 mg/L, downy mildew. The method, then:
as §5, §6, §7, §8, §9, §10

Series [4] has as its target T2, bc1 complex (Sus scrofa, UniProt P24964).
T2 construct: T h e S C R f r o m p o r c i n e h e a r t; from tissue; host or cells: porcine heart
Put plainly: bc1 complex activity, DBH2-cytochrome c system (Assay 3). Format: biochemical, porcine. The method, then:
Figure 3 Inhibitory kinetics of bc1 complex. (A) Chemical structures of AZ (azoxystrobin) and its analogues, compound 1 and compound 18. These compounds have a common pharmacophore structure: methoxyacrylate (MOA). […] Each reaction mixture contains phosphate buffered saline (PBS; 100 mM, pH 6.5), ethylenediaminetetraacetic acid (EDTA; 2 mM), lauryl maltoside (750 μM), oxidised cytochrome c (100 μM), SCR (0.05 nM), DBH2 (20–120 μM) and a specified amount of AZ (1, 0 nM; 2, 500 nM; 3, 1000 nM; 4, 2000 nM; 5, 3000 nM; and 6, 5000 nM). (C) Compound 1 is non-competitive with respect to cytochrome c. The reaction mixture contains 100 mM, pH 7.4), EDTA (0.3 mM), succinate (20 mM), SCR (0.1 nM), cytochrome c (1.13–15.6 μM), and a series of concentrations of compound 1 (1, 0 nM; 2, 10 nM; 3, 20 nM; 4, 40 nM; and 5, 60 nM). (D) Compound 1 is competitive with respect to DBH2. Each reaction mixture contains 100 mM, pH 6.5), EDTA (2 mM), lauryl maltoside (750 μM), oxidised cytochrome c (100 μM), SCR (0.05 nM), DBH2 (20–120 μM) and a specified amount of compound 1 (1, 0 nM; 2, 50 nM; 3, 100 nM; 4, 200 nM; 5, 300 nM; and 6, 500 nM).
as §1, §2, §3, §4
redA 10, was used to represent the enzyme concentration. The three redox reactions used in this study were summarized as follows. […]

Where [5] appears, read: Table S1, inhibition constant with bc1 complex, read-out: Ki.

Read-outs that look alike come from different tables or passages of the source.

T1 sequence (P24964 whole entry, one chain of several): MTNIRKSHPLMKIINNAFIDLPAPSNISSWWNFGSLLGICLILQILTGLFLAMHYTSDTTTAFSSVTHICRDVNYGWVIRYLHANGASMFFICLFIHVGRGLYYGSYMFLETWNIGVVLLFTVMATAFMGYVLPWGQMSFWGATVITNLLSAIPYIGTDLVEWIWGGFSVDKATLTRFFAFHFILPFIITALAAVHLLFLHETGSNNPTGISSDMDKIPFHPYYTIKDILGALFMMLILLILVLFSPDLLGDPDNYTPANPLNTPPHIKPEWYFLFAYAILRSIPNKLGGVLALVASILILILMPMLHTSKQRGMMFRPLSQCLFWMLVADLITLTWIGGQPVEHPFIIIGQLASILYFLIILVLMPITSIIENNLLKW
T2 sequence (P24964 whole entry, one chain of several): as above

On to `CO/N=C(/C(=O)OC)c1ccccc1CSc1nc2cc(F)ccc2s1` [Compound 52], for which the “∆∆Gexp” value in series [1] is given as -0.28 kcal/mol. Moreover, the Ki in series [1] (setting [5]) worked out at 19.3 ± 1.32 nM.
The like results for `CO/N=C(/C(=O)OC)c1ccccc1CSc1nc2ccc(Cl)cc2s1` [Compound 63] were, in that order, -0.71 kcal/mol and 9.37 ± 1.24 nM.
In the case of `CO/N=C(/C(=O)OC)c1ccccc1CSc1nc2ccc(F)cc2s1` [Compound 62], the “∆∆Gexp” value in series [1] was 0.55 kcal/mol. Moreover, the Ki in series [1] (setting [5]) was determined as 78.3 ± 1.37 nM.
Consider `CO/C=C(/C(=O)OC)c1ccccc1CSc1nc2ccc(C)cc2s1` [Compound 26], for which, in series [1], the Ki is 1.15 ± 0.05 nM, the “∆∆Gexp” value is -1.96 kcal/mol and the ΔΔGexp was -1.96 kcal/mol. In series [2], the “Fungus growth inhibitory rate, Sphaerotheca fuliginea” value is given as 81%. Besides, the “Fungus growth inhibitory rate, Pseudoperonospora cubensis” value in series [3] is reported as 97%.
For `CO/C=C(/C(=O)OC)c1ccccc1CSc1nc2c(F)cccc2s1` [Compound 2], the “∆∆Gexp” value in series [1] came to 0.09 kcal/mol. Further, the Ki in series [1] (setting [5]) was 35.9 ± 1.24 nM.
With `CO/N=C(/C(=O)OC)c1ccccc1CSc1nc2ccc(C)cc2s1` [Compound 66], the “∆∆Gexp” value in series [1] is -0.57 kcal/mol. Further, the Ki in series [1] (setting [5]) stood at 11.9 ± 1.08 nM.
On to `CO/C=C(/C(=O)OC)c1ccccc1CSc1nc2ccc(C(F)(F)F)cc2s1` [Compound 27], for which, in series [1], the Ki is 0.81 ± 0.03 nM, the “∆∆Gexp” value was -2.16 kcal/mol and the ΔΔGexp was -2.16 kcal/mol.
On to `CO/C=C(/C(=O)OC)c1ccccc1CSc1nc2cc(F)ccc2s1` [Compound 12], for which, in series [1], the Ki turned out to be 2.15 ± 0.23 nM, the “∆∆Gexp” value is reported as -1.58 kcal/mol and the ΔΔGexp is -1.58 kcal/mol. The “Fungus growth inhibitory rate, Sphaerotheca fuliginea” value in series [2] is listed as 99%. Further, the “Fungus growth inhibitory rate, Pseudoperonospora cubensis” value in series [3] is 90%.
For the molecule `CO/C=C(/C(=O)OC)c1ccccc1CSc1nc2ccc(Cl)cc2s1` [Compound 23], in series [1], the Ki came out at 2.75 ± 0.01 nM, the “∆∆Gexp” value is reported as -1.44 kcal/mol and the ΔΔGexp is -1.44 kcal/mol.
For `CO/N=C(/C(=O)OC)c1ccccc1CSc1nc2ccc(Br)cc2s1` [Compound 64], in series [1], the Ki is 3.44 ± 0.03 nM, the “∆∆Gexp” value was -1.31 kcal/mol and the ΔΔGexp was -1.31 kcal/mol.
As to `CO/C=C(/C(=O)OC)c1ccccc1CSc1nc2ccccc2s1` [Compound 1, E-Methyl 2-(2-((benzo-thiazol-2-ylthio)methyl)phenyl)-3-methoxyacrylate], the melting point was 84 to 86 °C. Besides, in series [1], the Ki is 31.1 ± 0.9 nM, the “∆∆Gexp” value worked out at 0.00 kcal/mol and the ΔΔGexp is listed as 0.00 kcal/mol. Further, the “inhibition type with respect to cytochrome c” value in series [1] (Assay 1, varied cytochrome c) is “non-competitive”. In series [4], the Ki came out at 96.5 ± 5.6 nM. In addition, in series [4] (Assay 3, varied DBH2), the “inhibition type with respect to DBH2” value is on record as “competitive”. Further, the “Ki in DBH2-cytochrome c system relative to Ki in succinate-cytochrome c system” value in series [4] (Assay 3 vs Assay 1) is “approximately 3 fold”.
For the molecule `CO/C=C(/C(=O)OC)c1ccccc1CSc1nc2cc(Cl)ccc2s1` [Compound 13], in series [1], the Ki was 0.69 ± 0.06 nM, the “∆∆Gexp” value is given as -2.26 kcal/mol and the ΔΔGexp is -2.26 kcal/mol.
In the case of `CO/N=C(/C(=O)OC)c1ccccc1CSc1nc2c(F)cccc2s1` [Compound 42], in series [1], the “∆∆Gexp” value was found to be 0.97 kcal/mol. Moreover, the Ki in series [1] (setting [5]) came to 160 ± 1.1 nM.
Regarding `CO/N=C(/C(=O)OC)c1ccccc1CSc1nc2cc(Cl)ccc2s1` [Compound 53], in series [1], the Ki turned out to be 2.84 ± 0.03 nM, the “∆∆Gexp” value is recorded as -1.42 kcal/mol and the ΔΔGexp is -1.42 kcal/mol.
For the molecule `CO/C=C(/C(=O)OC)c1ccccc1CSc1nc2c(Cl)cccc2s1` [Compound 3], the “∆∆Gexp” value in series [1] was 0.47 kcal/mol. Besides, the inhibition constant Ki in series [1] (setting [5]) came to 68.5 ± 1.21 nM.
The like results for `CO/N=C(/C(=O)OC)c1ccccc1CSc1nc2ccc([N+](=O)[O-])cc2s1` [Compound 65] were, in that order, -0.08 kcal/mol and 27.3 ± 1.27 nM.
Turning to `CO/C=C(/C(=O)OC)c1ccccc1CSc1nc2ccc(F)cc2s1` [Compound 22], in series [1], the Ki stood at 3.97 ± 0.27 nM, the “∆∆Gexp” value was -1.22 kcal/mol and the ΔΔGexp was -1.22 kcal/mol.
For `CO/N=C(/C(=O)OC)c1ccccc1CSc1nc2cc([N+](=O)[O-])ccc2s1` [Compound 55], in series [1], the Ki is 1.07 ± 0.12 nM, the “∆∆Gexp” value is recorded as -2.00 kcal/mol and the ΔΔGexp was -2.00 kcal/mol.
Consider `CO/C=C(/C(=O)OC)c1ccccc1CSc1nc2ccc(Br)cc2s1` [Compound 24], for which, in series [1], the Ki was determined as 1.15 ± 0.4 nM, the “∆∆Gexp” value is listed as -1.96 kcal/mol and the ΔΔGexp was -1.96 kcal/mol.
`CO/C=C(/C(=O)OC)c1ccccc1CSc1nc2cc([N+](=O)[O-])ccc2s1` [Compound 15]: in series [1], the Ki was determined as 0.39 ± 0.02 nM, the “∆∆Gexp” value is -2.60 kcal/mol and the ΔΔGexp was -2.60 kcal/mol.
For the molecule `CO/N=C(/C(=O)OC)c1ccccc1CSc1nc2c(Cl)cccc2s1` [Compound 43], the “∆∆Gexp” value in series [1] was 0.77 kcal/mol. In addition, in series [1] (setting [5]), the Ki turned out to be 114 ± 2.25 nM.

As a reminder, the Ki is a dissociation constant, usually derived from enzyme kinetics or from competition with a known ligand. What is called melting point is the temperature, or range, at which the solid turns liquid.

The values are drawn from article PMC4549706, “Rational Design of Highly Potent and Slow-Binding Cytochrome bc1 Inhibitor as Fungicide by Computational Substitution Optimization” (Scientific Reports, 2015).
